Columns and labels:
[1] = target: T1, DGKα (hDGKalpha(1-735)-N-His) (Homo sapiens, UniProt P23743); experiment: In vitro DGK inhibition assay, DGKalpha ADP Glo (in house); assay type: biochemical; details: 4 nM DGKα, 25 μM ATP, 125 uM DLG in liposomes, 1 hour reaction
T1 construct: hDGKalpha(1-735)-N-His; His (N); made in house; host or cells: Sf21 insect cells (baculovirus)
Procedure, shortened: (§1)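 ADP-Glo luminescence measured ADP formed over 1 h by Sf21-expressed full-length human enzymes: DGKα at 4 nM with 25 µM ATP, DGKζ at 2 nM with 50 µM ATP, both on 125 µM DLG in PS/PC liposomes. Dose–response used 11 threefold dilutions at 2% final DMSO.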

[2] = target: T2, DGKζ (hDGKzeta(1-928)-N-His) (Homo sapiens, UniProt Q13574); experiment: In vitro DGK inhibition assay, DGKzeta ADP Glo (in house); assay type: biochemical; details: 2 nM DGKζ, 50 μM ATP, 125 uM DLG in liposomes, 1 hour reaction
T2 construct: hDGKzeta(1-928)-N-His; His (N); made in house; host or cells: Sf21 insect cells (baculovirus)
Procedure, shortened: as §1

primary human T-cells = experiment: IL2 secretion measurements (24 h, CD3-stimulated T-cells, PBS counter screen); assay type: cell-based; details: for Emax IL2 (% activation): CD3 condition, normalised to DMSO (neutral) and 20 μM reference compound A1 = 100%; for EC50: Homo sapiens, T-cell, CD3-stimulated primary human T-cells, IL2 secretion, fitted sigmoidal curve, read-out: Tcell IL2 CD3 EC50
Procedure, shortened: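 IL-2 secretion was measured by ProQuantum or ELISA after 24 h culture of expanded human T-cells with compound, on CD3-antibody-coated plates or PBS counter-screen plates. Dosing used 5–6 points from a 20 or 10 μM final top at 3.333-fold steps in 0.2% DMSO. EC50/Emax were scaled between DMSO and 20 μM reference A1.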

T2 sequence (Q13574 whole entry): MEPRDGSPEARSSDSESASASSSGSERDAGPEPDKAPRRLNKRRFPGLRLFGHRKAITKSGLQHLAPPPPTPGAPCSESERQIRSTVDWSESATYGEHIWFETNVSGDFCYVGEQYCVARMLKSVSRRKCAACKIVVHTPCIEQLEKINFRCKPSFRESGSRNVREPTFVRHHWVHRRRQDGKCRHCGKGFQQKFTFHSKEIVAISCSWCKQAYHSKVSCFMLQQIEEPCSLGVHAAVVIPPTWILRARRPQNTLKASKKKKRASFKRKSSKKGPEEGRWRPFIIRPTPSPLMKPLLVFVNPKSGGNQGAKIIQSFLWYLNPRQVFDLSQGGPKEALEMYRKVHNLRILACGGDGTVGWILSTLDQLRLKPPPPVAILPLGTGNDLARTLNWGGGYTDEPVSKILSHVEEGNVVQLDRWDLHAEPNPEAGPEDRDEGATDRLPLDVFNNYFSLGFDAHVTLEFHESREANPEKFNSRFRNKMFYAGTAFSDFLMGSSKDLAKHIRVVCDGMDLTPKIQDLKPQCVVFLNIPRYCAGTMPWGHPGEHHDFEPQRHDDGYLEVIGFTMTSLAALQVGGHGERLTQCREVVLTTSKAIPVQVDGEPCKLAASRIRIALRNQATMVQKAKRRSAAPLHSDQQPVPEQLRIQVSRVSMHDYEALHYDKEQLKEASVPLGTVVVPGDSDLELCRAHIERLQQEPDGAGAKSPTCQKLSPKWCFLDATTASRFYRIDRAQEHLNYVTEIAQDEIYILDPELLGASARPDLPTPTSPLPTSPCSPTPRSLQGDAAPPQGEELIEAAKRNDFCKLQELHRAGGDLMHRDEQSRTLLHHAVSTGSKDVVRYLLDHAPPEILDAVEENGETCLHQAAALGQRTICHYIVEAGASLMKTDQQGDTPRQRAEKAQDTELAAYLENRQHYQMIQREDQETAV
T1 sequence (P23743 whole entry): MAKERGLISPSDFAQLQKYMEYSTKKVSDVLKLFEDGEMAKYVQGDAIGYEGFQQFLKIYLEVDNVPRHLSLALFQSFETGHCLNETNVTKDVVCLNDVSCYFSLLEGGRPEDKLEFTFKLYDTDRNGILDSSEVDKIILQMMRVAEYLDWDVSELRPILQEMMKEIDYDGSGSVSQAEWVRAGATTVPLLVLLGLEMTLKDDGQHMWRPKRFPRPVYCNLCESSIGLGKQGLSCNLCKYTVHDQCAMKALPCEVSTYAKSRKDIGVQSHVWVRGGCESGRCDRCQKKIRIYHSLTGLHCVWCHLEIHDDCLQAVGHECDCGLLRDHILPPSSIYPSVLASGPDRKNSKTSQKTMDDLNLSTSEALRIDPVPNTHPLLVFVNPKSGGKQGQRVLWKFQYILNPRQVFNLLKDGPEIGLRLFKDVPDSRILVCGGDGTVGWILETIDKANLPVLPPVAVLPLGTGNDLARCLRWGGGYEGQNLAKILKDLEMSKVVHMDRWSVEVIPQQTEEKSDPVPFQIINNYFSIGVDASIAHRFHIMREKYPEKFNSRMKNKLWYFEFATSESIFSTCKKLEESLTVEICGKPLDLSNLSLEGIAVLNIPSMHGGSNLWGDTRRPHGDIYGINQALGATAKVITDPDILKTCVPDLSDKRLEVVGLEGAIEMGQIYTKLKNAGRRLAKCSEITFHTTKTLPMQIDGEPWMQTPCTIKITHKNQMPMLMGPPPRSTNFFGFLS

Row | Compound | IC50 [1] [µM] | IC50 [2] [nM] | Emax IL2 (% activation) (primary human T-cells) | EC50 (primary human T-cells) [nM]
1 | Cn1ccc(-c2ccc(CN3C(=O)[C@@H](N)CS(=O)(=O)c4cc(F)c(-c5nnc(C(C)(C)C)o5)cc43)cc2)n1 [Example 1, (3R)-3-amino-7-(5-tert-butyl-1,3,4-oxadiazol-2-yl)-8-fluoro-5-[[4-(1-methylpyrazol-3-yl)phenyl]methyl]-1,1-dioxo-2,3-dihydro-1λ^6,5-benzothiazepin-4-one] | 2.36 | 488 | 91 | 1310
2 | Cc1noc(-c2ccc(CN3C(=O)[C@@H](N)CS(=O)(=O)c4cc(F)c(-c5nnc(C(C)(C)C)o5)cc43)cc2)n1 [Example 2] | 0.613 | 128 | 168 | 891
3 | CC(C)Nc1nnc(-c2cc3c(cc2F)S(=O)(=O)C[C@H](N)C(=O)N3Cc2ccc(-c3noc(C(F)(F)F)n3)cc2)o1 [Example 6, (3R)-3-amino-8-fluoro-7-[5-(isopropylamino)-1,3,4-oxadiazol-2-yl]-1,1-dioxo-5-[[4-[5-(trifluoromethyl)-1,2,4-oxadiazol-3-yl]phenyl]methyl]-2,3-dihydro-1λ^6,5-benzothiazepin-4-one] | 1.87 | 696 | 212 | 1170
4 | CC(C)(C)c1nc(-c2cc3c(cc2F)S(=O)(=O)C[C@H](N)C(=O)N3Cc2ccc(-c3ccc(CO)cc3)nc2)no1 [Example 7, (3R)-3-amino-7-(5-tert-butyl-1,2,4-oxadiazol-3-yl)-8-fluoro-5-[[6-[4-(hydroxymethyl)phenyl]-3-pyridyl]methyl]-1,1-dioxo-2,3-dihydro-1λ^6,5-benzothiazepin-4-one] | > 62.5 | 1400 | 38 | > 10000
5 | N[C@H]1CS(=O)(=O)c2cc(F)c(-c3noc(N4CCCC4)n3)cc2N(Cc2ccc(-c3noc(C(F)(F)F)n3)nc2)C1=O [Example 15, (3R)-3-amino-8-fluoro-1,1-dioxo-7-(5-pyrrolidin-1-yl-1,2,4-oxadiazol-3-yl)-5-[[6-[5-(trifluoromethyl)-1,2,4-oxadiazol-3-yl]-3-pyridyl]methyl]-2,3-dihydro-1λ^6,5-benzothiazepin-4-one] | 40.3 | 466 | 39 | > 10000
6 | Cc1noc(-c2ccc(CN3C(=O)[C@@H](N)CS(=O)(=O)c4ccc(-c5nnc(C(C)(C)C)o5)cc43)cc2)n1 [Example 20, (3R)-3-amino-7-(5-tert-butyl-1,3,4-oxadiazol-2-yl)-5-[[4-(3-methyl-1,2,4-oxadiazol-5-yl)phenyl]methyl]-1,1-dioxo-2,3-dihydro-1λ^6,5-benzothiazepin-4-one] | 4.96 | 1240 | 82 | 7630
7 | Cn1ccc(-c2ccc(CN3C(=O)[C@@H](N)CS(=O)(=O)c4ccc(-c5nnc(C(C)(C)C)o5)cc43)cc2)n1 [Example 21] | 16.8 | 2310 | 53 | 8010
8 | CC(C)(C)c1nnc(-c2ccc3c(c2)N(Cc2ccc(-c4noc(C(F)(F)F)n4)cc2)C(=O)[C@@H](N)CS3(=O)=O)o1 [Example 23, (3R)-3-amino-7-(5-tert-butyl-1,3,4-oxadiazol-2-yl)-1,1-dioxo-5-[[4-[5-(trifluoromethyl)-1,2,4-oxadiazol-3-yl]phenyl]methyl]-2,3-dihydro-1λ^6,5-benzothiazepin-4-one] | 1.53 | 523 | 120 | 769
9 | CC(C)(C)c1nnc(-c2ccc3c(c2)N(Cc2ccc(-n4cc(C(F)(F)F)cn4)cc2)C(=O)[C@@H](N)CS3(=O)=O)o1 [Example 25, (3R)-3-amino-7-(5-tert-butyl-1,3,4-oxadiazol-2-yl)-1,1-dioxo-5-[[4-[4-(trifluoromethyl)pyrazol-1-yl]phenyl]methyl]-2,3-dihydro-1λ^6,5-benzothiazepin-4-one] | 3.54 | 1270 | 137 | 609
10 | CC(C)(C)c1nnc(-c2ccc3c(c2)N(Cc2ccc(-n4ccc(C(F)(F)F)n4)cc2)C(=O)[C@@H](N)CS3(=O)=O)o1 [Example 27] | 2.95 | 758 | 160 | 476
11 | CC(C)(C)c1nnc(-c2ccc3c(c2)N(Cc2ccc(-n4cnc(C(F)(F)F)c4)cc2)C(=O)[C@@H](N)CS3(=O)=O)o1 [Example 28, (3R)-3-amino-7-(5-tert-butyl-1,3,4-oxadiazol-2-yl)-1,1-dioxo-5-[[4-[4-(trifluoromethyl)imidazol-1-yl]phenyl]methyl]-2,3-dihydro-1λ^6,5-benzothiazepin-4-one] | 37.3 | 4260 | 81 | 5010
12 | CC(N)(c1nnc(-c2ccc3c(c2)N(Cc2ccc(-c4noc(CC(F)(F)F)n4)cc2)C(=O)[C@@H](N)CS3(=O)=O)o1)C(F)(F)F (stereo partly drawn) [Example 33, (3R)-3-amino-7-[5-(1-amino-2,2,2-trifluoro-1-methyl-ethyl)-1,3,4-oxadiazol-2-yl]-1,1-dioxo-5-[[4-[5-(2,2,2-trifluoroethyl)-1,2,4-oxadiazol-3-yl]phenyl]methyl]-2,3-dihydro-1λ^6,5-benzothiazepin-4-one] | 23.8 | 2640 | 24 | > 10000
13 | CC(C)(C#N)c1nnc(-c2ccc3c(c2)N(Cc2ccc(-c4ccc(C(F)(F)F)cc4)cc2)C(=O)[C@@H](N)CS3(=O)=O)o1 [Example 46] | 16.2 | 1260 | 263 | 331
14 | CC(C)(C#N)c1nnc(-c2ccc3c(c2)N(Cc2ccc(-c4ccc(C(F)(F)F)cn4)cc2)C(=O)[C@@H](N)CS3(=O)=O)o1 [Example 47] | 7.28 | 842 | 163 | 670
15 | CC1(c2nnc(-c3ccc4c(c3)N(Cc3ccc(-c5ccc(C(F)(F)F)cc5)cc3)C(=O)[C@@H](N)CS4(=O)=O)o2)CCO1 (stereo partly drawn) [Example 48, (3R)-3-amino-7-[5-(2-methyloxetan-2-yl)-1,3,4-oxadiazol-2-yl]-1,1-dioxo-5-[[4-[4-(trifluoromethyl)phenyl]phenyl]methyl]-2,3-dihydro-1lambda6,5-benzothiazepin-4-one] | > 62.5 | 1590 | 114 | 984
16 | C[C@@](N)(c1nnc(-c2ccc3c(c2)N(Cc2ccc(-c4noc(C(F)(F)F)n4)cc2)C(=O)[C@@H](N)CS3(=O)=O)o1)C(F)(F)F [Example 52, (3R)-3-amino-7-[5-[(1R)-1-amino-2,2,2-trifluoro-1-methyl-ethyl]-1,3,4-oxadiazol-2-yl]-1,1-dioxo-5-[[4-[5-(trifluoromethyl)-1,2,4-oxadiazol-3-yl]phenyl]methyl]-2,3-dihydro-1λ^6,5-benzothiazepin-4-one] | 25.2 | 2320 | 164 | 645
